Experimental data from PMC3115046, “Analyzing Airway Inflammation with Chemical Biology: Dissection of Acidic Mammalian Chitinase Function with a Selective Drug-like Inhibitor” (Chemistry & Biology, 2011).

Legend:
murine CHIT1 [mCHIT1] = conditions: read-out: IC50 murine CHIT1; ref Zheng et al., 2005; Boot et al., 2001; cited from earlier work
allergen-challenged mice = conditions: ref Matsumoto et al., 2009, cited from earlier work
[1] = tested on: Aspergillus fumigatus chitinase B1 (AfChiB1); design: method as in Schuttelkopf et al., 2011; conditions: ref Schuttelkopf et al., 2011; cited from earlier work
[2] = target: human chitotriosidase (hCHIT1) (Homo sapiens, UniProt Q13231); assay: Chitinase activity assay with fluorescent 4-MU substrate, hCHIT1; format: biochemical; conditions: read-out: IC50 against hCHIT1
human chitotriosidase (hCHIT1), sequence (Q13231 22-466): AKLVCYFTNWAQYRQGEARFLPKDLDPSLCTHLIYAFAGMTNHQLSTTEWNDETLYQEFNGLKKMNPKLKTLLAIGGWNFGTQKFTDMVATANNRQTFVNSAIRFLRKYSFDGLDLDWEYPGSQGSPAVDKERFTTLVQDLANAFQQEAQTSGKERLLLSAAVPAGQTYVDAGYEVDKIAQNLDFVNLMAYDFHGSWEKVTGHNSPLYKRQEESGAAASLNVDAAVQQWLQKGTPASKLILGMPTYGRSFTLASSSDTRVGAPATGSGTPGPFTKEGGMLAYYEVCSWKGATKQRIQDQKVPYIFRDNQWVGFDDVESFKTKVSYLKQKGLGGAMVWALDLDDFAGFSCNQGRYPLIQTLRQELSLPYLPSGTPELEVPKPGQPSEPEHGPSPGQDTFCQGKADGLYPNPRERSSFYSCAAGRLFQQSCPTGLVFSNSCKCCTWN

Row | Structure (SMILES) | IC50 (murine CHIT1 [mCHIT1]) | eosinophilia in allergen-challenged mice (allergen-challenged mice; Zhu et al., 2004) | ligand efficiency against AfChiB1 [1] | IC50 [2] | allergen or IL-13-induced airway hyperresponsiveness (allergen-challenged mice; Zhu et al., 2004) | neutrophil recruitment in allergic mice (allergen-challenged mice)
1 | CC(=O)N[C@H]1[C@H](O[C@H]2[C@@H](O)[C@@H](NC(C)=O)[C@H](O[C@H]3[C@H](O)[C@H]4N=C(N(C)C)O[C@H]4[C@@H]3CO)O[C@@H]2CO)O[C@H](CO)[C@@H](O)[C@H]1O [allosamidin] | ~0.05 µM | significantly reduced | – | – | – | –
2 | Cn1cnc2c1c(=O)n(CCCn1c(=O)c3c(ncn3C)n(C)c1=O)c(=O)n2C [bisdionin C] | – | – | −0.41 kcal·mol^−1·atom^−1 | 8.3 ± 0.7 µM | – | –
3 | CNC1=N[C@@H]2[C@@H](O)[C@H](O[C@@H]3O[C@H](CO)[C@@H](O[C@@H]4O[C@H](CO)[C@@H](O)[C@@H](O)[C@H]4NC(C)=O)[C@@H](O)[C@H]3NC(C)=O)[C@@H](CO)[C@@H]2O1 [demethylallosamidin] | – | significantly reduced | – | – | reduces | did not result in neutrophil recruitment
